Test results reported in patent US10934295B2, “Antimicrobials and methods of making and using same” (BIOVERSYS AG, priority 2016, dated 2021).

Tests used:
E. coli strain ATCC25922 = assay: standard microdilution assay, minimum inhibitory concentration (MIC); assay type: cell-based; conditions: Escherichia coli
Experimental: (§1) The in vitro activity of the compounds of the present disclosure can be determined. Antimicrobial testing is typically performed to determine the minimum inhibitory concentration (MIC). Minimum inhibitory concentrations (MICs) are determined by the microdilution method in a final volume of 100 μl according to protocols outlined by The Clinical and Laboratory Standards Institute (CLSI). Performance standards for reference strains are assessed within the same experimental design to maintain quality control. See, for example, Clinical Laboratory Standards Institute: Methods for dilution antimicrobial susceptibility tests for bacteria that grow aerobically M7-A8. Approved Standard-Eighth Edition. Wayne, Pa.: CLSI; December 2008; and Clinical Laboratory Standards Institute: Performance Standards for Antimicrobial Susceptibility Testing M100-S20; Approved Standard-Twentieth Edition. Wayne, Pa.: CLSI; June 2010. The compounds of the present disclosure were tested for antimicrobial activity. The Compounds 1-32 were run against Eschericia colt (E. coli) strain ATCC25922 and against Staphylococcus aureus (S. aureus) 11540 strain using a standard microdilution assay to determine minimum inhibitory concentrations (MICs). […] It will be recognized by one skilled in the art that the compounds can be assessed against other bacterial organisms and that the presentation of data for activity against Eschericia colt and Staphylococcus aureus are illustrative and in no way is intended to limit the scope of the present disclosure. The compounds of the present disclosure can be assayed against a range of other microorganisms depending upon the performance activity desired to be gathered. Furthermore, the “+” and “−” representation and the selection of a cutoff value of 16 micrograms/mL is also illustrative and in no way is intended to limit the scope of the present disclosure.

[1] = tested on: Staphylococcus aureus (S. aureus) 11540 strain; assay: as above; assay type: cell-based
Experimental: as §1

Row | Compound | MIC (E. coli strain ATCC25922) [µg/mL] | MIC [1] [µg/mL]
1 | C[C@H](NCCCNC(=N)N)c1ccc(-n2cc3cc(-c4cc(CCC[C@@H](N)C(F)(F)F)cc(Cl)c4F)[nH]c3nc2=O)cc1 [Compound 26] | > 16 | ≤ 16
2 | C[C@H](N)CCCc1cc(Cl)c(F)c(-c2cc3cn(-c4ccc([C@@H]5CNC[C@@H](CCNC(=N)N)O5)cc4)c(=O)nc3[nH]2)c1 [Compound 14] | ≤ 16 | ≤ 16
3 | COCCOCc1cc(-n2cc3cc(-c4cc(CCC[C@H](C)N)cc(Cl)c4F)[nH]c3nc2=O)ccc1CN[C@@H](C)CCNC(=N)N [Compound 12] | ≤ 16 | ≤ 16
4 | CNC(=O)Cc1cc(-n2cc3cc(-c4cc(CCC[C@H](C)N)cc(Cl)c4F)[nH]c3nc2=O)ccc1CN[C@@H](C)CCNC(=N)N [Compound 2] | ≤ 16 | ≤ 16
5 | C[C@H](N)CCCc1cc(Cl)c(F)c(-c2cc3cn(-c4ccc([C@@H](NCCCNC(=N)N)C(F)(F)F)cc4)c(=O)nc3[nH]2)c1 [Compound 27] | ≤ 16 | ≤ 16
6 | C[C@H](N)CCCc1cc(Cl)c(F)c(-c2cc3cn(-c4ccc([C@@H]5CNC[C@H](CCNC(=N)N)N5)cc4)c(=O)nc3[nH]2)c1 [Compound 22] | ≤ 16 | ≤ 16
7 | C[C@H](N)CCCc1cc(Cl)c(F)c(-c2cc3cn(-c4ccc([C@@H]5CNC[C@H](CCNC(=N)N)O5)cc4)c(=O)nc3[nH]2)c1 [Compound 5] | ≤ 16 | ≤ 16
8 | C[C@H](N)CCCc1cc(Cl)c(F)c(-c2cc3cn(-c4ccc(C(=O)N[C@@H](CN)CCNC(=N)N)cc4)c(=O)nc3[nH]2)c1 [Compound 25] | ≤ 16 | ≤ 16
9 | C[C@H](N)CCCc1cc(Cl)c(F)c(-c2cc3cn(-c4cc(F)c(CO[C@H](CCNC(=N)N)CNC(=N)N)c(F)c4)c(=O)nc3[nH]2)c1 [Compound 56] | ≤ 16 | ≤ 16
10 | C[C@H](N)CCCc1cc(Cl)c(F)c(-c2cc3cn(-c4ccc(CO[C@H](CCNC(=N)N)CNC(=N)N)c(F)c4)c(=O)nc3[nH]2)c1 [Compound 30] | ≤ 16 | ≤ 16
11 | C[C@H](N)CCCc1cc(Cl)c(F)c(-c2cc3cn(-c4ccc(CN[C@@H](C)CCNC(=N)N)c(N(C)C)c4)c(=O)nc3[nH]2)c1 [Compound 11] | ≤ 16 | ≤ 16
12 | C[C@H](N)CCCc1cc(Cl)c(F)c(-c2cc3cn(-c4ccc(C(=O)N[C@H](CCNC(=N)N)CNc5ncc[nH]5)cc4)c(=O)nc3[nH]2)c1 [Compound 15] | ≤ 16 | ≤ 16
13 | C[C@H](N)CCCc1cc(Cl)c(F)c(-c2cc3cn(-c4ccc([C@@H]5CNC[C@@H](CCNC(=N)N)N5)cc4)c(=O)nc3[nH]2)c1 [Compound 23] | ≤ 16 | ≤ 16
14 | C[C@H](N)CCCc1cc(Cl)c(F)c(-c2cc3cn(-c4ccc(N5CCNC(CCNC(=N)N)C5)cc4)c(=O)nc3[nH]2)c1 (stereo partly drawn) [Compound 7] | ≤ 16 | ≤ 16
15 | C[C@H](N)CCCc1cc(Cl)c(F)c(-c2cc3cn(-c4ccc(CN[C@@H](C)CCNC(=N)N)c(N5CCOCC5)c4)c(=O)nc3[nH]2)c1 [Compound 16] | ≤ 16 | ≤ 16
16 | COc1cc(-n2cc3cc(-c4cc(CCC[C@H](C)N)cc(Cl)c4F)[nH]c3nc2=O)ccc1CO[C@H](CCNC(=N)N)CNC(=N)N [Compound 32] | ≤ 16 | ≤ 16
17 | C[C@H](N)CCCc1cc(Cl)c(F)c(-c2cc3cn(-c4ccc([C@@H](NCCCNC(=N)N)C(F)F)cc4)c(=O)nc3[nH]2)c1 [Compound 28] | ≤ 16 | ≤ 16
18 | N=C(N)NCC[C@@H]1CSC[C@@H](c2ccc(-n3cc4cc(-c5cc(CCC[C@@H](N)C6CC6)cc(Cl)c5F)[nH]c4nc3=O)cc2)N1 [Compound 29] | ≤ 16 | ≤ 16
19 | C[C@H](N)CCCc1cc(Cl)c(F)c(-c2cc3cn(-c4ccc([C@H]5CNC[C@H](CCNC(=N)N)N5)cc4)c(=O)nc3[nH]2)c1 [Compound 18] | ≤ 16 | ≤ 16
20 | C[C@H](N)CCCc1cc(Cl)c(F)c(-c2cc3cn(-c4ccc(CN[C@@H](C)CCNC(=N)N)c(S(C)(=O)=O)c4)c(=O)nc3[nH]2)c1 [Compound 6] | ≤ 16 | ≤ 16
21 | C[C@H](N)CCCc1cc(Cl)c(F)c(-c2cc3cn(-c4ccc([C@H]5CNC[C@@H](CCNC(=N)N)N5)cc4)c(=O)nc3[nH]2)c1 [Compound 17] | ≤ 16 | ≤ 16

The remaining lines, values ahead:

Row | MIC (E. coli strain ATCC25922) [µg/mL] | MIC [1] [µg/mL] | Compound
22 | ≤ 16 | ≤ 16 | C[C@H](N)CCCc1cc(Cl)c(F)c(-c2cc3cn(-c4ccc(C(=O)N[C@@H](CO)CCNC(=N)N)cc4)c(=O)nc3[nH]2)c1 [Compound 10]
23 | ≤ 16 | ≤ 16 | C[C@H](N)CCCc1cc(Cl)c(F)c(-c2cc3cn(-c4ccc(C(=O)N[C@H](CCNC(=N)N)CNC(=N)N)cc4)c(=O)nc3[nH]2)c1 [Compound 19]
24 | ≤ 16 | ≤ 16 | C[C@H](N)CCCc1cc(Cl)c(F)c(-c2cc3cn(-c4ccc(CN[C@@H](C)CCNC(=N)N)c([N+](=O)[O-])c4)c(=O)nc3[nH]2)c1 [Compound 8]
25 | ≤ 16 | ≤ 16 | C[C@H](N)CCCc1cc(Cl)c(F)c(-c2cc3cn(-c4ccc(C(=O)N[C@@H](C)CCNC(=N)N)cc4)c(=O)nc3[nH]2)c1 [Compound 9]
26 | ≤ 16 | ≤ 16 | C[C@H](N)CCCc1cc(Cl)c(F)c(-c2cc3cn(-c4ccc(C(=O)N[C@H](CCNC(=N)N)CNc5ccccn5)cc4)c(=O)nc3[nH]2)c1 [Compound 21]
27 | ≤ 16 | ≤ 16 | C=C[C@@H](CCNC(=N)N)NC(=O)c1ccc(-n2cc3cc(-c4cc(CCC[C@H](C)N)cc(Cl)c4F)[nH]c3nc2=O)cc1 [Compound 20]
28 | > 16 | ≤ 16 | C[C@H](N)CCCc1cc(Cl)c(F)c(-c2cc3cn(-c4ccc(CN[C@@H](C)CCNC(=N)N)c(CC(=O)O)c4)c(=O)nc3[nH]2)c1 [Compound 1]
29 | ≤ 16 | ≤ 16 | CSC[C@@H](CCNC(=N)N)NCc1ccc(-n2cc3cc(-c4cc(CCC[C@H](C)N)cc(Cl)c4F)[nH]c3nc2=O)cc1 [Compound 24]
30 | ≤ 16 | ≤ 16 | CSc1cc(-n2cc3cc(-c4cc(CCC[C@H](C)N)cc(Cl)c4F)[nH]c3nc2=O)ccc1CO[C@H](CCNC(=N)N)CNC(=N)N [Compound 31]
